Data set [1] has as its system SK-Br3 breast cancer cells. The data set is described as follows: MTT cytotoxicity assay, SK-Br3 breast cancer cells. The class given is cell-based, human. Conditions: Homo sapiens, SK-BR-3, 48 h, MTT, 48 h, read-out: IC50, growth inhibition, SK-Br3. The method, then: (§1) MCF-7 and MDA-MB-231 breast cancer cells were obtained from the American Type Culture Collection (ATCC) and were routinely grown in Dulbecco's modified Eagle's medium (DMEM, Gibco) containing 10% fetal bovine serum (FBS, Bio-Whittaker), 1% L-glutamine, 1% sodium pyruvate, 50 U/mL penicillin and 50 μg/mL streptomycin. SK-Br3 breast cancer cells were obtained from Eucellbank (Universidad de Barcelona, Spain) and were passaged in McCoy's 5 A medium containing 10% FBS, 1% L-glutamine, 1% sodium pyruvate, 50 U/mL penicillin and 50 μg/mL streptomycin. Non-malignant fibroblasts N-1 were obtained from Eucellbank (Universidad de Barcelona, Spain) and were passaged in DMEM medium containing 10% FBS, 1% L-glutamine, 1% sodium pyruvate, 50 U/mL penicillin and 50 μg/mL streptomycin. The cells remained free of Mycoplasma and were propagated in adherent culture according to established protocols. Cells were maintained at 37° C. in a humidified atmosphere of 95% air and 5% CO2.
(§2) Drug sensitivity was determined using a standard colorimetric MTT (3-4,5-dimethylthiazol-2-yl-2,5-diphenyltetrazolium bromide) assay. Briefly, cells were plated out at a density of 7×10^3 cells/100 μL/well in 96-well microtitre plates and allowed an overnight period for attachment. Then the medium was removed and fresh medium along with various concentrations of the tested compound were added to the cultures for a period of 48 h. Following the treatment, the cells were fed with drug-free medium (100 μL/well) and 10 μL of MTT solution (5 mg/mL; Sigma, St. Louis, Mo.), and the incubation was prolonged for 3 h at 37° C. After carefully removing the supernatants, the MTT-formazan crystals formed by metabolically viable cells were dissolved in dimethyl sulphoxide (100 μL/well) and the absorbance was measured at 570 nm in a multi-well plate reader (Model Anthos Labtec 2010 1.7 reader).
(In general: Tetrazolium assays rely on reduction of a dye to a coloured formazan, in cell work by metabolically active cells.)

Data set [2] relates to MCF-7 breast cancer cells. Description: MTT cytotoxicity assay, MCF-7 breast cancer cells. The class given is cell-based, human. The conditions noted are these: Homo sapiens, MCF7, MCF-7 cells, 48 h, read-out: IC50, growth inhibition, MCF-7. The method, then: as §1, §2
Data set [3] relates to MDA-MB-231 breast cancer cells. Description: MTT cytotoxicity assay, MDA-MB-231 breast cancer cells. Type of data set: cell-based, human. The conditions noted are these: Homo sapiens, MDA-MB-231 cells, 48 h, read-out: IC50, growth inhibition, MDA-MB-231. As to the method: as §1, §2
In data set [4] the test system is Non-malignant fibroblasts N-1. The data set is described as follows: MTT cytotoxicity assay, non-malignant fibroblasts N-1. Type of data set: cell-based. Conditions: for IC50: Fibroblast, non-malignant fibroblasts, MTT, 48 h, read-out: IC50, growth inhibition, Fibroblasts; for effects in cell death / morphology changes in non-malignant cells: up to doses three-fold their cytotoxic IC50 value in tumoral cells. As to the method:
as §1, §2

The target of data set [5] is T1, FASN (Homo sapiens, UniProt P49327).
T1 construct: endogenous in cells; host or cells: SK-Br3 breast cancer cells
Description: Fatty acid synthase activity assay in SK-Br3 cells (NADPH oxidation, particle-free supernatants). Type of data set: cell-based. Also on record: FASN activity, % of control cells / FASN activity reduced to / reduction of FASN activity: concentration or dose not given beside the values. Conditions: for inhibition of FASN activity (in words): SK-Br3 cells treated 6, 12 and 24 hours; for FASN activity reduced to: 12 h exposure. As to the method:
FASN activity of compounds a, b, e, f, h, i, k, m and q was assayed in particle-free supernatants by recording spectrophotometrically at 37° C. (Lambda Bio 20, Perkin Elmer, EUA; using UV Kinlab 2.80.02 software) the decrease of A340nm due to the oxidation of NADPH, as we previously described. After 6, 12, 24 h of exposure to the tested compound, the cells were harvested by treatment with trypsin-EDTA solution, pelleted by centrifugation, washed twice and resuspended in cold PBS. The cells were sonicated during 30 min at 4° C. (PSelecta ultrasons) and centrifuged for 15 min at 4° C. to keep supernatants particle-free. A sample was taken to measure the protein content by a BioRad assay (Bio-Rad Laboratories). One-hundred and twenty micrograms of protein were pre-incubated during 15 min at 37° C. in 0.2 M of potassium phosphate buffer, pH 7.0, for temperature equilibration. The sample was then added to the reaction mixture: 200 mM potassium phosphate buffer, pH 7.0, 1 mM EDTA (Sigma), 1 mM dithiothreitol (Sigma), 30 μM acetyl-CoA (Sigma), 0.24 mM NADPH (Sigma), in 0.3 mL reaction volume were monitored at 340 nm for 3 min to measure the background NADPH oxidation. After the addition of 50 μM of malonyl-CoA (Sigma), the reaction was assayed for additional 10 min to determine FASN-dependent oxidation of NADPH. Rates were corrected for the background rate of NADPH oxidation in the presence of acetyl-CoA. FASN activity was expressed in nmol NADPH oxidized min^−1 mg protein^−1.

The values that follow come from patent US20100190856A1, “Novel Polyhydroxylated Compounds as Fatty Acid Synthase (FASN) Inhibitors” (UNIVERSIDAD COMPLUTENSE DE MADRID, priority 2007, published 2010).

A word on the IC50: it is the concentration that inhibits the measured activity by half. As usually defined, the melting point is the temperature, or range, at which the solid turns liquid.

“Also recorded” adds a separate entry of the source.

T1 sequence (P49327 whole entry): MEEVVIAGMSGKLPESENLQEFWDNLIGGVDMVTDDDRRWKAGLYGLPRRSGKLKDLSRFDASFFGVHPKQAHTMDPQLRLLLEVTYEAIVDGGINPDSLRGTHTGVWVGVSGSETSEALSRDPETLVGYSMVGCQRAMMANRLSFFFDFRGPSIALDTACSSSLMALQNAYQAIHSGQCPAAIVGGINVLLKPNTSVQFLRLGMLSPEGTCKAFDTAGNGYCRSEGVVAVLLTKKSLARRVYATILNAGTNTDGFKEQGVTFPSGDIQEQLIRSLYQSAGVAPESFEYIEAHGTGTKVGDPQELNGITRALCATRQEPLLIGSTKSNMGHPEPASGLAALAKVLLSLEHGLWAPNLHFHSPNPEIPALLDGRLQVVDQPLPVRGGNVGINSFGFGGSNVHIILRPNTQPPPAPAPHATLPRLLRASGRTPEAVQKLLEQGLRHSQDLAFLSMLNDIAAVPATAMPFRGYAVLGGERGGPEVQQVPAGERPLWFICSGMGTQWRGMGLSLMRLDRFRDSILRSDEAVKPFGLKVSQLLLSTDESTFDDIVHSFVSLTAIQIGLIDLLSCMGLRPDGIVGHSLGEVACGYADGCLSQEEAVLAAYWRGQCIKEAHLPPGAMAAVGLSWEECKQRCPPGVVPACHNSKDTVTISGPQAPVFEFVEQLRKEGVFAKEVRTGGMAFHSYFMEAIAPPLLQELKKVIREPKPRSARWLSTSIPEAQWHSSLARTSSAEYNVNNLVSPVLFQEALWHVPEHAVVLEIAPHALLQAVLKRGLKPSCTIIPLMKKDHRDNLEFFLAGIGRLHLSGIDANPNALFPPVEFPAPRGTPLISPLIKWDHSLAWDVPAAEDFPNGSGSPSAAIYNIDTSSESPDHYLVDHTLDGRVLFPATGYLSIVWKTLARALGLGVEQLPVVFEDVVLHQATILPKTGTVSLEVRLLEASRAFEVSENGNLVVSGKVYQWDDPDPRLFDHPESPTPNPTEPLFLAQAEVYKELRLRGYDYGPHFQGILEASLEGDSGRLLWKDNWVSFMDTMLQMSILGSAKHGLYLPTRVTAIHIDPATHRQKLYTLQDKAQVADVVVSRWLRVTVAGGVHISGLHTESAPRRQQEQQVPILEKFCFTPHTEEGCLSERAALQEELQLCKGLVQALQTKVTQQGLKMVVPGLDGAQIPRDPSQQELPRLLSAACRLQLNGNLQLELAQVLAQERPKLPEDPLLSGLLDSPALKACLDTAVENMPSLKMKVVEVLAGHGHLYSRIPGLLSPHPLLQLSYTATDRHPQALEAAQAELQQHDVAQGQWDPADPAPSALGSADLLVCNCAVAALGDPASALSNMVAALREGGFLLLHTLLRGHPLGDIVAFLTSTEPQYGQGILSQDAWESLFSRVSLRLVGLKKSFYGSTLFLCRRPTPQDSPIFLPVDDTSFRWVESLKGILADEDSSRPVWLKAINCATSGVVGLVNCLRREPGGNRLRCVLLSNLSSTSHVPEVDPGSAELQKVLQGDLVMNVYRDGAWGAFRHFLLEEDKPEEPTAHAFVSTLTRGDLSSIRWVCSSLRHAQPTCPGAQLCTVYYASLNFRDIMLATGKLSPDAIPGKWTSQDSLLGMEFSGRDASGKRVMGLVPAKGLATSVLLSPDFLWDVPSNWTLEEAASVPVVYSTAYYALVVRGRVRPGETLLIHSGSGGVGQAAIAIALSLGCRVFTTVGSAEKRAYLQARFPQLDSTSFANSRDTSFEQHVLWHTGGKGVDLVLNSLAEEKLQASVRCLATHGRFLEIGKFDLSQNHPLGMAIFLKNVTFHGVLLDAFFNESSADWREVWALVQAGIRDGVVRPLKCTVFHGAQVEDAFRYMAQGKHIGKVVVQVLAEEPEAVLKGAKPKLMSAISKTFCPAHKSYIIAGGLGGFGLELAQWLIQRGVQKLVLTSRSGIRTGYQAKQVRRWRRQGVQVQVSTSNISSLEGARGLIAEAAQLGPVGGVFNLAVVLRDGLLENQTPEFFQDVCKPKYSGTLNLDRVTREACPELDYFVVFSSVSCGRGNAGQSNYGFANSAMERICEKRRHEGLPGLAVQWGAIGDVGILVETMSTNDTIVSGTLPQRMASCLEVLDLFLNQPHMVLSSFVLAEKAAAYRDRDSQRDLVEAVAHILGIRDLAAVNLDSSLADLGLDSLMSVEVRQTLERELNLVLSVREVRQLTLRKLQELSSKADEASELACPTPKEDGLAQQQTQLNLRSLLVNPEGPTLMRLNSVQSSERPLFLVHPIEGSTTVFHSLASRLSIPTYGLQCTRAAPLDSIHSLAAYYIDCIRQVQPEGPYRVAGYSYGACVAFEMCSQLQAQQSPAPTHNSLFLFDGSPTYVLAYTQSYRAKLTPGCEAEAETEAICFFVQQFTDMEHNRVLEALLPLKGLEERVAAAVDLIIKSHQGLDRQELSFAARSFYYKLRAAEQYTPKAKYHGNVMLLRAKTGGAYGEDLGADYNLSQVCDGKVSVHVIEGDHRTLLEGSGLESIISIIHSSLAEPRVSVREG

The compound `O=C(Oc1ccccc1OC(=O)c1cc(O)c(O)c(O)c1)c1cc(O)c(O)c(O)c1` [a, 1,2-bis[(3,4,5-trihydroxybenzoyl)oxy]benzene] yielded a melting point of 210 °C. The IC50 in data set [1] worked out at 126 ± 5.2 µM. For the same compound, the IC50 in data set [2] was 165 ± 8.2 µM. Further, the IC50 in data set [3] worked out at 163 ± 5.2 µM.

On to `O=C(Oc1cccc2c(OC(=O)c3cc(O)c(O)c(O)c3)cccc12)c1cc(O)c(O)c(O)c1` [m, 1,5-bis[(3,4,5-trihydroxybenzoyl)oxy]naphthalene], for which the IC50 in data set [1] was 25.7 ± 3 µM; in data set [2], 69 ± 14 µM; in data set [3], 186 ± 10 µM; in data set [4], more than 150 µM. Also, the “effects in cell death / morphology changes in non-malignant cells” value in data set [4] is given as “No significant effects”. In data set [5], the “inhibition of FASN activity (in words)” value is listed as “inhibit FASN activity; also recorded: decreased in a time-dependent manner”. For the same compound, in data set [5] (SK-Br3 cells), the “FASN activity reduced to” value was 77%. In addition, the “FASN activity, % of control cells” value in data set [5] (SK-Br3 cells, 24 h exposure) amounted to 76%.

`O=C(Oc1ccc(OC(=O)c2cc(O)cc(O)c2)c2ccccc12)c1cc(O)cc(O)c1` [j, 1,4-bis[(3,5-dihydroxybenzoyl)oxy]naphthalene] displayed a melting point of 201 to 203 °C. In addition, in data set [1], the IC50 is 115 ± 7.1 µM. In addition, the concentration for half-maximal inhibition (IC50) in data set [3] amounted to 24 ± 0.9 µM.

`COc1cc(C(=O)Oc2ccc(-c3ccc(OC(=O)c4ccc(O)c(O)c4)cc3)cc2)cc(O)c1O` [v, 4′[(3,4-dihydroxybenzoyl)oxy]-1,1′-biphenyl-4-yl 3,4-dihydroxy-5-methoxybenzoate]: the melting point is 240 °C (dec.). In data set [1], the IC50 was less than 1 µM.

Take `O=C(Oc1ccc(-c2ccc(OC(=O)c3cc(O)nc(O)c3)cc2)cc1)c1cc(O)nc(O)c1` [r, 4,4′-bis[(2,6-dihydroxyisonicotinoyl)oxy]-1,1′-biphenyl]: the melting point is 285 °C (dec.).

For `Cc1c(O)cc(C(=O)Oc2ccc(OC(=O)c3cc(O)c(C)c(O)c3)c3c2CCCC3)cc1O` [aa, 1,4-bis[(3,5-dihydroxy-4-methylbenzoyl)oxy]-5,6,7,8-tetrahydronaphthalene], the melting point is 204 °C (dec.). Also, the 50% inhibitory concentration (IC50) in data set [1] worked out at 49.5 ± 4.9 µM.

Compound `O=C(Oc1ccc(-c2ccc(OC(=O)c3cc(O)c(Br)c(O)c3)cc2)cc1)c1ccc(O)c(O)c1` [u, 4′[(3,4-dihydroxybenzoyl)oxy]-1,1′-biphenyl-4-yl 4-bromo-3,5-dihydroxybenzoate] showed a melting point of 252 to 254 °C. Also, in data set [1], the IC50 came out at 31 µM.

Take `COc1cc(C(=O)Oc2cc(OC(=O)c3cc(O)c(O)c(OC)c3)c3ccccc3c2)cc(O)c1O` [x, 1,3-bis[(3,4-dihydroxy-5-methoxybenzoyl)oxy]naphthalene]: the melting point was 260 °C (dec.). For the same compound, the IC50 in data set [1] is 3 µM.

In turn, `O=C(Oc1cc(OC(=O)c2cc(O)cc(O)c2)c2ccccc2c1)c1cc(O)cc(O)c1` [g, 1,3-bis[(3,5-dihydroxybenzoyl)oxy]naphthalene] gave a melting point of 167 to 169 °C. Moreover, in data set [1], the half-inhibitory concentration (IC50) was determined as 107 ± 29.7 µM. Moreover, the IC50 in data set [3] was determined as 121 ± 5.7 µM.

As for `O=C(Oc1ccc(OC(=O)c2ccc(O)c(O)c2)c2ccccc12)c1ccc(O)c(O)c1` [k, 1,4-bis[(3,4-dihydroxybenzoyl)oxy]naphthalene], the IC50 came to 37.5 ± 6.4 µM in data set [1], 49.3 ± 10 µM in data set [2], 27 ± 11.3 µM in data set [3] and 68 µM in data set [4]. Besides, the “effects in cell death / morphology changes in non-malignant cells” value in data set [4] was “No significant effects”. Moreover, the “inhibition of FASN activity (in words)” value in data set [5] is listed as “inhibit FASN activity”. Further, in data set [5] (SK-Br3 cells), the “FASN activity reduced to” value is 44%.

Compound `O=C(Oc1ccc(OC(=O)c2ccccc2)c(-c2ccccc2)c1)c1cc(O)c(O)c(O)c1` [p, 6-(benzoyloxy)-1,1′-biphenyl-3-yl 3,4,5-trihydroxybenzoate] had a melting point of 82 to 84 °C. Moreover, the IC50 in data set [1] was 73.5 ± 4.9 µM. For the same compound, the half-maximal inhibitory concentration (IC50) in data set [3] was more than 150 µM.

Consider `Cc1cc(OC(=O)c2cc(O)c(O)c(O)c2)ccc1OC(=O)c1cc(O)c(O)c(O)c1` [c, 2-methyl-1,4-bis[(3,4,5-trihydroxybenzoyl)oxy]benzene], for which the 50% inhibitory concentration (IC50) in data set [1] is 23.3 ± 2.1 µM; in data set [2], 4.5 µM; in data set [3], 54.7 ± 7.6 µM; in data set [4], more than 100 µM. Besides, in data set [4], the “effects in cell death / morphology changes in non-malignant cells” value was “No significant effects”.

`O=C(Oc1cccc(OC(=O)c2cc(O)c(O)c(O)c2)c1)c1cc(O)c(O)c(O)c1` [b, 1,3-bis[(3,4,5-trihydroxybenzoyl)oxy]benzene] returned a melting point of 194 to 195 °C. In addition, the half-inhibitory concentration (IC50) in data set [1] turned out to be 42 ± 7.1 µM. Besides, the half-inhibitory concentration (IC50) in data set [2] stood at 162 ± 17.8 µM. For the same compound, the IC50 in data set [3] is 173 ± 40.2 µM.

As to `O=C(Oc1ccc(-c2ccc(OC(=O)c3ccc(O)c(O)c3)cc2)cc1)c1ccc(O)c(O)c1` [t, 4,4′-bis[(3,4-dihydroxybenzoyl)oxy]-1,1′-biphenyl], the melting point is 286 °C (dec.). Moreover, the IC50 in data set [1] is 90 µM.
